Test results published in patent US12564638B2 (SHANGHAITECH UNIVERSITY, priority 2019, dated 2026).
Where two headings read alike, the source gives them in different places.

Test system: HCC827 cells (EGFR Exon19 del, non-small cell lung cancer cells)
Experiment: Cell viability assay (WST/CCK8), HCC827 cells
Format: cell-based
Conditions: 72 hours; for IC50: Homo sapiens, HCC827, 72 h, HCC827 (Exon19 Del), read-out: IC50 (half inhibitory concentration)
Description: The cell lines with abnormal EGFR expression used are as follows: • HCC827 cells (EGFR Exon19 del, non-small cell lung cancer cells); • PC9 cells (EGFR Exon 19 del, non-small cell lung cancer cells); • PC9BracA1 (EGFR Exon 19 del+T790M, non-small cell lung cancer cells) • H1975 (EGFR Exon T790M+L858R mutation, non-small cell lung cancer cell line) • BT474 cells (HER2 positive breast cancer cells)
All of the half inhibitory concentrations (IC50) of these compounds of the present invention were determined with WST reagent from Fuyuan Biotec Company. The specific experiment procedures are as follows: Cancer cells were planted in 96-well-plate at the density of 3 000 cells per well with 100 μL RPMI1640 completed culture medium. In the next day, compounds with indicated concentrations were added to the cells, DMSO was used as the negative control and the EGFR TKIs were used to treat cells as the positive groups. After 72 hours drug treatment, cell viability was measured by using the WST reagent following the instructions.
The cells were treated with the gradient concentration of these compounds (the maximum concentration: 10 μM; 3-fold dilution ratio, 10 concentration gradients) for 72 hours and then incubated with the WST (CCK8) reagent to determine the cell viability.

[1] = Table 4, gefitinib and sapitinib-based compounds, WST

Row | IC50 (WST (CCK8)) [nM] | IC50 [1] [nM] | Compound | cell proliferation inhibition (in words) (HCC827 cells)
1 | 31.3 |  | COc1cc2ncnc(Nc3ccc(F)c(Cl)c3)c2cc1NC(=O)/C=C/CN1CCN(C(=O)CCCCC(=O)N[C@H](C(=O)N2C[C@H](O)C[C@H]2C(=O)NCc2ccc(-c3scnc3C)cc2)C(C)(C)C)CC1 [SIAIS249042, (2S,4R)-1-((S)-2-(6-(4-((E)-4-((4-((3-chloro-4-fluorophenyl)amino)-7-methoxyquinazolin-6-yl)amino)-4-oxobut-2-en-1-yl)piperazin-1-yl)-6-oxohexanamido)-3,3-dimethylbutanoyl)-4-hydroxy-N-(4-(4-methylthiazol-5-yl)benzyl)pyrrolidine-2-carboxamide] | 
2 | 23.6 |  | COc1cc2ncnc(Nc3ccc(F)c(Cl)c3)c2cc1NC(=O)/C=C/CN1CCN(C(=O)CCOCCOCCOCCNc2cccc3c2C(=O)N(C2CCC(=O)NC2=O)C3=O)CC1 (centres unmarked) [SIAIS249047, (E)-N-(4-((3-chloro-4-fluorophenyl)amino)-7-methoxyquinazolin-6-yl)-4-(4-(3-(2-(2-(2-((2-(2,6-dioxopiperidin-3-yl)-1,3-dioxoisoindolin-4-yl)amino)ethoxy)ethoxy)ethoxy)propanoyl)piperazin-1-yl)but-2-enamide] | 
3 | 104 |  | COc1cc2ncnc(Nc3ccc(F)c(Cl)c3)c2cc1NC(=O)/C=C/CN1CCN(C(=O)COCCOCCOCCOCCSc2cccc3c2CN(C2CCC(=O)NC2=O)C3=O)CC1 (centres unmarked) [SIAIS262003, (E)-N-(4-((3-chloro-4-fluorophenyl)amino)-7-methoxyquinazolin-6-yl)-4-(4-(14-((2-(2,6-dioxopiperidin-3-yl)-1-oxoisoindolin-4-yl)thio)-3,6,9,12-tetraoxatetradecan-1-oyl)piperazin-1-yl)but-2-enamide] | 
4 | 46.6 |  | COc1cc2ncnc(Nc3ccc(F)c(Cl)c3)c2cc1NC(=O)/C=C/CN1CCN(C(=O)COCCOCCOCCOCCOCCSc2cccc3c2C(=O)N(C2CCC(=O)NC2=O)C3=O)CC1 (centres unmarked) [SIAIS262008, (E)-N-(4-((3-chloro-4-fluorophenyl)amino)-7-methoxyquinazolin-6-yl)-4-(4-(17-((2-(2,6-dioxopiperidin-3-yl)-1,3-dioxoisoindolin-4-yl)thio)-3,6,9,12,15-pentaoxaheptadecanoyl)piperazin-1-yl)but-2-enamide] | 
5 | 5.9 |  | COc1cc2ncnc(Nc3ccc(F)c(Cl)c3)c2cc1NC(=O)/C=C/CN1CCC(N2CCN(CCCCCNc3cccc4c3C(=O)N(C3CCC(=O)NC3=O)C4=O)CC2)CC1 (centres unmarked) [SIAIS262071, (E)-N-(4-((3-chloro-4-fluorophenyl)amino)-7-methoxyquinazolin-6-yl)-4-(4-(4-(5-((2-(2,6-dioxopiperidin-3-yl)-1,3-dioxoisoindolin-4-yl)amino)pentyl)piperazin-1-yl)piperidin-1-yl)but-2-enamide] | 
6 | 16.9 |  | COc1cc2ncnc(Nc3ccc(F)c(Cl)c3)c2cc1NC(=O)/C=C/CN1CCC(N2CCN(CCCCCCNc3cccc4c3C(=O)N(C3CCC(=O)NC3=O)C4=O)CC2)CC1 (centres unmarked) [SIAIS262072, (E)-N-(4-((3-chloro-4-fluorophenyl)amino)-7-methoxyquinazolin-6-yl)-4-(4-(4-(6-((2-(2,6-dioxopiperidin-3-yl)-1,3-dioxoisoindolin-4-yl)amino)hexyl)piperazin-1-yl)piperidin-1-yl)but-2-enamide] | 
7 |  | 41 | COc1cc2ncnc(Nc3ccc(F)c(Cl)c3)c2cc1OCCCN1CCC(N2CCNCC2)CC1 [SIAIS262080, N-(3-chloro-4-fluorophenyl)-7-methoxy-6-(3-(4-(piperazin-1-yl)piperidin-1-yl)propoxy)quinazolin-4-amine] | 
8 |  | 145 | COc1cc2ncnc(Nc3ccc(F)c(Cl)c3)c2cc1OCCCN1CCC(N2CCN(C(=O)CSc3cccc4c3CN(C3CCC(=O)NC3=O)C4=O)CC2)CC1 (centres unmarked) [SIAIS262085, 3-(4-((2-(4-(1-(3-((4-((3-chloro-4-fluorophenyl)amino)-7-methoxyquinazolin-6-yl)oxy)propyl)piperidin-4-yl)piperazin-1-yl)-2-oxoethyl)thio)-1-oxoisoindolin-2-yl)piperidine-2,6-dione] | 
9 |  | 59 | COc1cc2ncnc(Nc3ccc(F)c(Cl)c3)c2cc1OCCCN1CCC(N2CCN(C(=O)CCCCSc3cccc4c3CN(C3CCC(=O)NC3=O)C4=O)CC2)CC1 (centres unmarked) [SIAIS262086, 3-(4-((5-(4-(1-(3-((4-((3-chloro-4-fluorophenyl)amino)-7-methoxyquinazolin-6-yl)oxy)propyl)piperidin-4-yl)piperazin-1-yl)-5-oxopentyl)thio)-1-oxoisoindolin-2-yl)piperidine-2,6-dione] | 
10 |  | 31 | COc1cc2ncnc(Nc3ccc(F)c(Cl)c3)c2cc1OCCCN1CCC(N2CCN(C(=O)CCCCCSc3cccc4c3CN(C3CCC(=O)NC3=O)C4=O)CC2)CC1 (centres unmarked) [SIAIS262087, 3-(4-((6-(4-(1-(3-((4-((3-chloro-4-fluorophenyl)amino)-7-methoxyquinazolin-6-yl)oxy)propyl)piperidin-4-yl)piperazin-1-yl)-6-oxohexyl)thio)-1-oxoisoindolin-2-yl)piperidine-2,6-dione] | 
11 |  | 102 | COc1cc2ncnc(Nc3ccc(F)c(Cl)c3)c2cc1OCCCN1CCC(N2CCN(CCCC#Cc3cccc4c3CN(C3CCC(=O)NC3=O)C4=O)CC2)CC1 (centres unmarked) [SIAIS262089, 3-(4-(5-(4-(1-(3-((4-((3-chloro-4-fluorophenyl)amino)-7-methoxyquinazolin-6-yl)oxy)propyl)piperidin-4-yl)piperazin-1-yl)pent-1-yn-1-yl)-1-oxoisoindolin-2-yl)piperidine-2,6-dione] | 
12 |  | 47 | COc1cc2ncnc(Nc3ccc(F)c(Cl)c3)c2cc1OCCCN1CCC(N2CCN(CCCCC#Cc3cccc4c3CN(C3CCC(=O)NC3=O)C4=O)CC2)CC1 (centres unmarked) [SIAIS262090, 3-(4-(6-(4-(1-(3-((4-((3-chloro-4-fluorophenyl)amino)-7-methoxyquinazolin-6-yl)oxy)propyl)piperidin-4-yl)piperazin-1-yl)hex-1-yn-1-yl)-1-oxoisoindolin-2-yl)piperidine-2,6-dione] | 
13 |  | 12 | COc1cc2ncnc(Nc3ccc(F)c(Cl)c3)c2cc1OC1CCN(CC(=O)NCCSc2cccc3c2CN(C2CCC(=O)NC2=O)C3=O)CC1 (centres unmarked) [SIAIS293047, 2-(4-((4-((3-chloro-4-fluorophenyl)amino)-7-methoxyquinazolin-6-yl)oxy)piperidin-1-yl)-N-(2-((2-(2,6-dioxopiperidin-3-yl)-1-oxoisoindolin-4-yl)thio)ethyl)acetamide] | 
14 |  | 23 | COc1cc2ncnc(Nc3ccc(F)c(Cl)c3)c2cc1OC1CCN(CC(=O)NCCCSc2cccc3c2CN(C2CCC(=O)NC2=O)C3=O)CC1 (centres unmarked) [SIAIS293048, 2-(4-((4-((3-chloro-4-fluorophenyl)amino)-7-methoxyquinazolin-6-yl)oxy)piperidin-1-yl)-N-(3-((2-(2,6-dioxopiperidin-3-yl)-1-oxoisoindolin-4-yl)thio)propyl)acetamide] | 
15 |  | 2.8 | COc1cc2ncnc(Nc3ccc(F)c(Cl)c3)c2cc1OC1CCN(CC(=O)NCCCCSc2cccc3c2CN(C2CCC(=O)NC2=O)C3=O)CC1 (centres unmarked) [SIAIS293049, 2-(4-((4-((3-chloro-4-fluorophenyl)amino)-7-methoxyquinazolin-6-yl)oxy)piperidin-1-yl)-N-(4-((2-(2,6-dioxopiperidin-3-yl)-1-oxoisoindolin-4-yl)thio)butyl)acetamide] | 
16 |  | 1.5 | COc1cc2ncnc(Nc3ccc(F)c(Cl)c3)c2cc1OC1CCN(CC(=O)NCCCCCCSc2cccc3c2CN(C2CCC(=O)NC2=O)C3=O)CC1 (centres unmarked) [SIAIS293050, 2-(4-((4-((3-chloro-4-fluorophenyl)amino)-7-methoxyquinazolin-6-yl)oxy)piperidin-1-yl)-N-(6-((2-(2,6-dioxopiperidin-3-yl)-1-oxoisoindolin-4-yl)thio)hexyl)acetamide] | 
17 |  | 6.5 | COc1cc2ncnc(Nc3ccc(F)c(Cl)c3)c2cc1OC1CCN(CC(=O)NCCCCCCCSc2cccc3c2CN(C2CCC(=O)NC2=O)C3=O)CC1 (centres unmarked) [SIAIS293051, 2-(4-((4-((3-chloro-4-fluorophenyl)amino)-7-methoxyquinazolin-6-yl)oxy)piperidin-1-yl)-N-(7-((2-(2,6-dioxopiperidin-3-yl)-1-oxoisoindolin-4-yl)thio)heptyl)acetamide] | 
18 |  | 0.25 | COc1cc2ncnc(Nc3ccc(F)c(Cl)c3)c2cc1OC1CCN(CC(=O)NCCCCCCCCSc2cccc3c2CN(C2CCC(=O)NC2=O)C3=O)CC1 (centres unmarked) [SIAIS293052, 2-(4-((4-((3-chloro-4-fluorophenyl)amino)-7-methoxyquinazolin-6-yl)oxy)piperidin-1-yl)-N-(8-((2-(2,6-dioxopiperidin-3-yl)-1-oxoisoindolin-4-yl)thio)octyl)acetamide] | 
19 |  | 0.3 | COc1cc2ncnc(Nc3cccc(Cl)c3F)c2cc1OC1CCN(CC(=O)NCCCCSc2cccc3c2CN(C2CCC(=O)NC2=O)C3=O)CC1 (centres unmarked) [SIAIS293067, 2-(4-((4-((3-chloro-2-fluorophenyl)amino)-7-methoxyquinazolin-6-yl)oxy)piperidin-1-yl)-N-(4-((2-(2,6-dioxopiperidin-3-yl)-1-oxoisoindolin-4-yl)thio)butyl)acetamide] | better than sapitinib on cell killing
